Laboratory results: patent EP1348696B1, “Use of optically active clausenamides for the preparation of pharmaceutical compositions, pharmaceutical compositions containing the same” (INSTITUTE OF MATERIA MEDICA, CHINESE ACADEMY OF MEDICAL …, priority 2002, dated 2003)

Tested on: β-AP (25-35)-treated rats
Assay: Morris water maze, memory impairment induced by aggregated Aβ 25-35
Assay type: in vivo
Conditions: A β 25-35 alone
Excerpt: Pathological features of Alzheimer's disease (AD) include extensive neuronal loss and the presence of numerous neurofibrillary tangles and senile plaques in the brain. The senile plaques contain amyloid fibrils derived from a 39-43 amino acids peptide referred to as β-amyloid or Aβ which can produce neurotoxicity. Aβ 25-35 poccesses the similar neurotoxicity and ability of self-aggregation as Aβ 1-42. Administrated aggregated Aβ 25-35 into rat's lateral cerebral ventricle induced memory impairment in Morris water maze. […] The latency for finding the platform beginning from 3th to 5th day in (-)clausenamide 8mg • kg^-1 and 40mg • kg^-1 groups was shorter than that of A β group. […] With increasing of training days, the initial heading angle became small. On the 3th day, the initial heading angle of A β group was larger than control. […] (see Tab.3)
There are four strategies for finding platform in Morris water maze: random, circle, taxis and line. In the beginning of training the search strategies for finding target is mainly circle and random, with the increasing of training, the percentage of the two strategies declined gradually, Beginning from the 3th day, declining speed in control and (-) clausenamide group was faster than A β ,(+) clausenamide and piracetam groups. Meanwhile, the appearance of taxis and line strategies in (-) clausenamide group increased markedly. Table 3a Effects of (-),(+) Clausenamide on the number of error of β-AP (25-35)-treated rats inone trial passive avoidance. Value is represented as MEAN±S.E.M.

A β 25-35: β-amyloid fragment with neurotoxicity and self-aggregation similar to Aβ 1-42; icv induces memory impairment (GSNKGAIIGLM; Amyloid-beta protein 42; UniProt P05067 696-706, looked up, fragment)
initial heading angle, Training days 1: 106.3±29.8 | initial heading angle, Training days 2: 98.7±30.4 | initial heading angle, Training days 3: 73.6±20.3 | initial heading angle, Training days 4: 60.6±23.8 | initial heading angle, Training days 5: 46.7±19.4
